Data set [1] has as its system STAT5 phosphorylation in hTSLP-stimulated HMC-1 cells. Briefly: STAT5 assay (STAT5 phosphorylation, flow cytometry). It counts as cell-based, human. The procedure:
(§1) HMC-1 cells were obtained from the Department of Food Technology and Inflammatory Disease Research Center (Hoseo University, Asan, Chungnam, Korea). Cells were cultured in Iscove’s modified Dulbecco’s medium (IMDM; Hyclone Laboratories Inc, USA) supplemented with 10% FBS and 1% Penicillin-streptomycin (PS; Gibco Industries Inc, USA) and incubated at 37 °C under humidified atmosphere of 95% air and 5% CO2. Recombinant hTSLP was purchased from R&D Systems (Minneapolis, USA).
Intracellular phospho-STAT5 (pSTAT5) staining method was based on the protocol obtained from the laboratory of Susan Kaech, Department of Immunobiology, Yale University School of Medicine (New Haven, Connecticut, USA). Briefly, HMC-1 cells were seeded in 96-well U-bottom plate at a density of 1 × 10^7 cells/mL and stimulated with 100 ng/mL recombinant hTSLP alone or with 1 for 30 min. After stimulation, cells were fixed with BD Cytofix/Cytoperm (BD Biosciences, USA) solution for 10 min. Fixed cells were then permeabilized with ice-cold methanol for 30 min, and intracellular pSTAT5 was stained with Alexa Fluor 647 mouse anti-STAT5 (pY694; BD Biosciences, USA) (1:10 dilution in FACS buffer) for 30 min. Stained cells were further fixed with BD Cytofix/Cytoperm solution for 10 min and re-suspended in FACS buffer for flow cytometry analysis. Cells were analyzed by a BD LSR Fortessa Flow cytometry (BD Biosciences, USA). FACS data were analyzed using FlowJo software Ver 9. 7. 6 (Tree Star Inc., USA).
(In general: Flow cytometry measures light scatter and fluorescence of single cells or particles in a stream.)

The subject of the next data set is HDM-challenged mice. Briefly: HDM-induced mouse model of allergic airway inflammation. To be noted: 1 (200 μg/mL) on day 4, 6 and 8; analysis on day 11. It counts as in vivo. The procedure: Approximately 1 × 10^6 CD4 T cells from DO11.10 mice were transferred to naïve BALB/c mice intravenously. The following day, mice were challenged with a mixture of HDM (50 μg of Dermatophagoides farinae and Dermatophagoides pteronyssinus each; Greer Laboratories, Inc., USA) and 100 μg of OVA (Sigma-Aldrich Co., USA) for three days via the intranasal route. Mice were treated with 1 (200 μg) or PBS intraperitoneally three times every other day starting from […] post-challenge based on previous report. Allergen-challenged mice were sacrificed on day 11 post-challenge. […] The total cell number was counted using a hemocytometer. Leukocytes were transferred to glass slides by Cytospin (Thermo Scientific, USA) at 2,800 rpm for 5 min, and stained with Diff-Quick staining (Sysmex Corporation, Japan). Flow cytometry analysis: […] Cells were stained with anti-CD4 FITC (RM4-5, Biolegend Inc., USA), anti-CD127 PE/Cy7 (A7R34, Biolegend Inc., USA), anti-CD62L APC/Cy7 (MEL14, Biolegend Inc., USA), anti-CD27 PE (LG.7F9, eBioscience Inc., USA), and anti-DO11.10APC (KJ1-26, eBioscience Inc., USA) antibodies for 30 min. Stained cells were examined by flow cytometry using LSR Fortessa ^TM. Data were analyzed using FlowJo software Ver 9.7.6.

The target of a further data set is T1, hTSLP (Homo sapiens, UniProt Q969D9).
T1 construct: human TSLP28–159 with thrombin cleavage site at C-terminus; thrombin cleavage site (C); 8xHis (from vector pAB-bee-8xHis) (C, cleaved yes); made in house; host or cells: Trichoplusia ni High-Five cells, baculovirus (secreted)
T1 sequence (Q969D9 28-159): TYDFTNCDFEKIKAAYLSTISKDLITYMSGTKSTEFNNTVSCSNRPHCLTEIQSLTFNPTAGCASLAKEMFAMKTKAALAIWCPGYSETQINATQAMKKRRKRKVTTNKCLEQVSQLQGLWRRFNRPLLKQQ
Briefly: 1D and CPMG relaxation-edited NMR ligand binding. To be noted: 1 at 100 μM, PBS buffer condition.

For data set [2], the target named is T2, FLAG-tagged hTSLP bound to His-tagged hTSLPR (Homo sapiens, UniProt Q969D9).
T2 construct: human TSLP28–159 with thrombin cleavage site at C-terminus; thrombin cleavage site (C); 8xHis (from vector pAB-bee-8xHis) (C, cleaved yes); made in house; host or cells: Trichoplusia ni High-Five cells, baculovirus (secreted)
T2 sequence (Q969D9 28-159): as above
The data set is described as follows: Pull-down assay, His-tagged hTSLPR and FLAG-tagged hTSLP, Western blotting. The class given is binding. To be noted: compound at 0, 10, 50 and 100 μM. For orientation: A western blot detects proteins with antibodies after separation by electrophoresis.

Data set [3] relates to OVA-sensitized and challenged mice. The data set is described as follows: OVA-induced mouse model of allergic airway inflammation. The class given is in vivo. The procedure: Sensitization and airway challenge: For initial sensitization, BALB/c mice were administered intraperitoneally on day 0 with 20 μg of OVA emulsified in 200 μL of sterile PBS containing 1 mg of aluminum hydroxide adjuvant (Imject® Alum, Thermofisher, Korea). On day 14, the mice were boosted with the same allergen by IP injection. […] The mice were sacrificed at the indicated time points and BAL was performed. […] The control group received vehicle only. BAL: Immediately after sacrifice, lungs were lavaged as described above. Total leukocyte numbers were counted. Differential cell counts were performed by counting at least 200 cells on cytocentrifuged samples stained with Diff-Quick solution.

The test system of another data set is carbonic anhydrase. The data set is described as follows: 1D and CPMG relaxation-edited NMR ligand binding. To be noted: 1 at 100 μM, 2.5 μM carbonic anhydrase. The procedure:
(§2) All spectra were measured at 283, 291, and 298 K. Data processing and analysis were conducted using TopSpin 3.1 program (Bruker, Germany). One-dimensional (1D) relaxation-edited experiments were performed using the method previously described by Hadjuk et al.[23]. We used CPMG pulse train with a pre-acquisition delay of 1.8 s, a 2 ms delay for dephasing and rephrasing in spin echo, and a total spin-lock time of 400 ms. The data were collected using a spectral width of 9,615 Hz and 128 scans.

The next data set has as its target T3, hTSLPR (Homo sapiens, UniProt Q9HC73).
T3 construct: human TSLPR26–217 with C-terminal octa-histidine tag (hTSLPR-His); 8xHis (C); made in house; host or cells: Trichoplusia ni High-Five cells, baculovirus (secreted)
T3 sequence (Q9HC73 26-217): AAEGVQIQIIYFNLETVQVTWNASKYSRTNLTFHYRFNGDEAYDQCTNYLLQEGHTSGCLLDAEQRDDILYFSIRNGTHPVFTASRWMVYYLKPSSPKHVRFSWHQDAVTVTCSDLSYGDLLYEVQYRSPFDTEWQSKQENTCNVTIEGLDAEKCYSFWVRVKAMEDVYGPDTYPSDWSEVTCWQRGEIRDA
The data set is described as follows: 1D and CPMG relaxation-edited NMR ligand binding. To be noted: 1 at 100 μM, 2.5 μM hTSLPR. The procedure:
as §2

The nature of data set [4]: Kinetic aqueous solubility. Conditions: 0.1 M potassium phosphate buffer, kinetic from dmso stock, PBS / phosphate buffer pH 7.4. It counts as physicochemical. The procedure: In brief, 10 mM stock solution of tested compounds was prepared in DMSO. 25 μL of the stock solution was added to a 1-mL uniprep vial containing 475 μL of 0.1 M potassium phosphate buffer (pH 7.4), and was shaken at 800 rpm for 90 min at room temperature. Following shaking, the mixture was filtered by slowly pressing the upper tube of the 1 mL Mini-Uniprep^TM filter (PTFE membrane, 0.45 μm). 250 μL of the filtrate solution was then transferred to a HPLC vial containing equal volume of acetonitrile.

Data set [5] relates to house dust mite (HDM)-challenged mice. To be noted: cited from earlier work.
For data set [6], the system named is pSTAT5 in TSLP-stimulated HMC-1 cells. The data set is described as follows: Western blot analysis of STAT5 phosphorylation. The class given is cell-based, human. To be noted: HMC-1 cells pretreated, TSLP 20 ng/mL for 2 h. The procedure:
as §1
[…] Activated cells were lysed and separated by 10% sodium dodecyl sulfate-polyacrylamide gel electrophoresis (SDS-PAGE). After electrophoresis, proteins were transferred to nitrocellulose membranes. The membranes were blocked, incubated with primary antibodies (1:700 dilution in PBS with 0.05% Tween-20), and developed using peroxidase-conjugated secondary antibodies (1:3000 dilution in PBS with 0.05% Tween-20). Proteins were visualized by enhanced chemiluminescence (Amersham Bioseciences, Piscataway, NJ, USA) according to the manufacturer’s instructions.

For data set [7], the system named is ovalbumin (OVA)-treated mice. Conditions: cited from earlier work.

Converted amounts (≈) assume the structure as drawn.

In general, solubility (kinetic) refers to the concentration staying in solution when a stock, usually in DMSO, is diluted into the medium. Consider `O=c1cc(-c2ccccc2)oc2cc(O)c(O)c(O)c12` [Compound 1, baicalein], for which the STAT5 phosphorylation % is reported as 65.7% in data set [1] (3 µM) and 61.6% in [1] (10 μM). In addition, in data set [1] (HMC-1 cells, hTSLP 100 ng/mL, 30 min, compound 1 at 3 or 10 μM), the “hTSLP inhibitory activity in the in vitro STAT5 assay (in words)” value was “inhibited”. In the data set on HDM-challenged mice, the “number of allergen-specific T cells” value was “not changed”. The “number of eosinophils in BALF vs PBS-treated control” value in the data set with HDM-challenged mice was “substantially reduced”. In addition, the “total number of leukocytes in BALF vs PBS control” value in the data set on HDM-challenged mice is given as “comparable”. The “1D NMR signals of the compound in the presence of the protein” value was “significantly broadened” at hTSLP, “no signal broadening” in the data set on carbonic anhydrase and “no signal broadening” on hTSLPR. The “amount of FLAG-tagged hTSLP bound to His-tagged hTSLPR” value in data set [2] is “reduced in a dose-dependent manner”. Besides, in [3] (100 mg/kg IP, BALF 48 h), the “number of eosinophils recruited to the airways” value is given as “significantly reduced”. The “eosinophil numbers in BALF over time” value in data set [3] (100 mg/kg IP, as early as 24 h post injection, up to 72 h) is recorded as “decreased”. Moreover, the “inhibition of airway inflammation” value in data set [3] (single IP administration, 10, 50 or 100 mg/kg, BALF 48 h) is on record as “dose-dependent manner”. The solubility (kinetic) at 90 min in data set [4] was found to be 62 µM (≈ 16.8 µg/mL). Moreover, in data set [5], the skin severity scores result is reported as “lower”. In addition, the “inhibition of STAT5 phosphorylation, Western blot (in words)” value in [6] was “dose-dependent inhibition”. Also, the airway inflammation result in data set [7] is “reduce”.
